In ChEMBL document CHEMBL4052779, “Isosorbide-based peptidomimetics as inhibitors of hepatitis C virus serine protease” (Bioorg Med Chem Lett, 2017):

Key:
[1] = Solubility of the compound in aqueous buffer; assay type: physicochemical
Hepacivirus hominis [2] = assay: Inhibition of recombinant HCV NS3/4A protease at 100 uM pre-incubated for 10 mins followed by 5-FAM/QXL520 substrate addition and measured after 60 mins by FRET analysis relative to control
[3] = system: Hepatitis C virus serine protease, NS3/NS4A (Hepatitis C virus), D2K2A8+A3EZI9 [D168A]; assay: Inhibition of recombinant HCV NS3/4A protease D168A mutant assessed as residual enzyme activity at 100 uM pre-incubated for 10 mins followed by 5-FAM/QXL520 substrate addition and measured after 60 mins by FRET analysis relative to control; conditions: Hepacivirus hominis
[4] = Inhibition of recombinant HCV NS3/4A protease pre-incubated for 10 mins followed by 5-FAM/QXL520 substrate addition and measured after 60 mins by FRET analysis relative to control; set-up: species or system Hepacivirus hominis
Hepacivirus hominis [5] = assay: Inhibition of recombinant HCV NS3/4A protease V170A mutant assessed as residual enzyme activity at 100 uM pre-incubated for 10 mins followed by 5-FAM/QXL520 substrate addition and measured after 60 mins by FRET analysis relative to control
Hepacivirus hominis [6] = assay: Inhibition of recombinant wild type HCV NS3/4A protease assessed as residual enzyme activity at 100 uM pre-incubated for 10 mins followed by 5-FAM/QXL520 substrate addition and measured after 60 mins by FRET analysis relative to control

| solubility [1] | inhibition (Hepacivirus hominis [2]) | SMILES | further results |
| --- | --- | --- | --- |
| Insoluble | – | CC(C)(C)OC(=O)N[C@@H](CCCN/C(=N\C(=O)OCc1ccccc1)NC(=O)OCc1ccccc1)C(=O)N[C@H]1CO[C@H]2[C@@H]1OC[C@@H]2OCc1ccccc1 | – |
| Soluble | 30.3% | O=C(N[C@H]1CO[C@H]2[C@@H]1OC[C@@H]2OCc1ccccc1)/C(=C/c1cc2ccccc2s1)NC(=O)c1ccccc1 | – |
| Insoluble | – | C[C@@H](O)[C@H](NC(=O)OC(C)(C)C)C(=O)N[C@H]1CO[C@H]2[C@@H]1OC[C@@H]2OCc1ccccc1 | – |
| Insoluble | – | CC(C)(C)OC(=O)N[C@@H](Cc1c[nH]c2ccccc12)C(=O)N[C@H]1CO[C@H]2[C@@H]1OC[C@@H]2OCc1ccccc1 | – |
| Insoluble | 45% | O=C(N[C@@H]1CO[C@H]2[C@@H]1OC[C@H]2OCc1ccccc1)/C(=C/c1cccs1)NC(=O)c1ccccc1 | – |
| Insoluble | – | CC(C)(C)OC(=O)N1CCC[C@H]1C(=O)N[C@H]1CO[C@H]2[C@@H]1OC[C@@H]2OCc1ccccc1 | – |
| Insoluble | – | COc1ccc(CO[C@H]2CO[C@H]3[C@@H]2OC[C@@H]3NC(=O)/C(=C/c2cccs2)NC(=O)c2ccccc2)cc1 | – |

| SMILES | solubility [1] | inhibition (Hepacivirus hominis [2]) | further results |
| --- | --- | --- | --- |
| O=C(N[C@H]1CO[C@H]2[C@@H]1OC[C@@H]2OCc1ccccc1)/C(=C/c1ccco1)NC(=O)c1ccccc1 | Soluble | 81.8% | Activity [3]: 36.7%; IC50 [4]: 36 µM; Activity (Hepacivirus hominis [5]): 6.7%; Activity (Hepacivirus hominis [6]): 18.2% |
